Measurements: PubChem BioAssay (NCI)
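Cultured in 96-well plates, cells were exposed to test compound for 48 hours across five concentrations. TGI: total growth inhibition.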

Key:
Test in all cases: inhibition of tumour cell growth, NCI panel, 48 h
M19-MEL melanoma = test system: M19-MEL melanoma
DMS 114 small cell lung = test system: DMS 114 small cell lung
LXFL 529 NSCLC = test system: LXFL 529 NSCLC
DLD-1 colon = test system: DLD-1 colon
RXF-631 renal = test system: RXF-631 renal
HOP-18 NSCLC = test system: HOP-18 NSCLC

Measured: TGI

Nc1nc(N)c2nc(-c3ccco3)cnc2n1
> 100 µM: all assays above
